The structures appear in SMILES notation. Some results are limits rather than exact numbers.

Assay type in all cases: cell-based
Test [1] deals with NCI-H1975 (expressing EGFR L858R/T790M double-mutant gene). As to the kind of experiment: Cancer cell growth, Cell Titer-Glo, 72 h: NCI-H1975. Conditions: Homo sapiens; NCI-H1975 cells, 72 h; read-out: GI50. From the text: (§1) Compounds of the present invention were further evaluated for their selectivity in inhibiting proliferation of cancer cells by testing effects of the novel kinase inhibitors on proliferation of cancer cells. In the examples the following cells were selected: human non-small cell lung cancer cell NCI-H1975 (expressing EGFR L858R/T790M double-mutant gene), human-derived non-small cell lung cancer cell PC-9 (expressing EGFR delE746_A750 mutant gene), human-derived non-small cell lung cancer cell HCC827 (expressing EGFR delE746_A750 mutant gene), human lung adenocarcinoma cell HCC4006 (expressing EGFR delE746_A750 mutant gene), human non-small cell lung cancer cell NCI-H3255 (expressing EGFR L858R mutant gene), human skin squamous carcinoma cell A431 (expressing wild-type EGFR gene), human non-small cell lung cancer cell A549 (expressing wild-type EGFR gene), human non-small cell lung cancer cell NCI-H460 (expressing wild-type EGFR gene), human non-small cell lung cancer cell NCI-H2122 (expressing wild-type EGFR gene), Chinese hamster ovary (CHO) cell (Cricetulus griseus, hamster, Chinese, ovary), Chinese hamster lung cell (CHL), mouse pro-B cell BaF3. The cells above were all purchased from (USA).
(§2) The cells were incubated for 72 h, and then the number of viable cells was determined via quantitative determination with a microplate reader by using Cell Titer-Glo® (Promega, the USA) Luminescent Cell Viability Assay kit.

The test system of test [2] is BaF3-TEL-EGFR (stably expressing wild-type EGFR kinase). As to the kind of experiment: Cell growth, Cell Titer-Glo, 72 h: BaF3-TEL-EGFR. Conditions: Mus musculus, BaF3-TEL-EGFR cells, read-out: GI50.
Description: (§3) In addition, this example further uses: mouse BaF3-TEL-EGFR (stably expressing wild-type EGFR kinase), mouse BaF3-TEL-EGFR-L858R (stably expressing EGFR L858R mutant kinase), mouse BaF3-TEL-EGFR-T790M (stably expressing EGFR T790M mutant kinase), mouse BaF3-FL-EGFR-DeI19 (stably expressing EGFR delE746_A750 mutant kinase), mouse BaF3-FL-EGFR-T790M-L858R (stably expressing EGFR T790M/L858R mutant kinase), mouse BaF3/P210 (stably expressing bcr/abl˜(P210) mutant kinase), mouse BaF3-TEL-ABL-T315I (stably expressing ABLT315I mutant kinase), mouse BaF3-FLT3-ITD (stably expressing FLT3/ITD mutant kinase), mouse BaF3-TEL-JAK2 (stably expressing JAK2 kinase), mouse BaF3-TEL-JAK3 (stably expressing JAK3 kinase), mouse BaF3-TPR-MET (stably expressing MET kinase), mouse BaF3-TEL-BLK (stably expressing BLK kinase), mouse BaF3-TEL-ABL (stably expressing ABL kinase), mouse BaF3-TEL-BMX (stably expressing BMX kinase), mouse BaF3-TEL-ALK (stably expressing ALK kinase). The above cell lines were all constructed by our laboratory according to the following method: the kinase region sequences of human […], EGFR L858R, EGFR T790M, EGFR delE746_A750, EGFR T790M/L858R, bcr/abl˜(P210), ABL T315I, FLT3/ITD, JAK2, JAK3, MET, BLK, ABL, BMX, ALK were amplified respectively by PCR, inserted respectively into MSCV-Puro vectors harboring N-terminal fragment and/or NPM fragment and/or TPR fragment (Clontech), then the vectors were stably transfected into mouse BaF3 cells by retrovirus methods and growth factor IL-3 was removed, eventually obtaining cell lines that are transferred protein (EGFR, EGFR L858R, EGFR T790M, EGFR delE746_A750, EGFR T790M/L858R, bcr/abl˜(P210), ABL T315I, FLT3/ITD, JAK2, JAK3, MET, BLK, ABL, BMX, ALK)-dependent.
as §2
Background: Cellular ATP, detected with luciferase, serves as a proxy for viable cell number.

Test [3] deals with PC-9 (expressing EGFR delE746_A750 mutant gene). As to the kind of experiment: Cancer cell growth, Cell Titer-Glo, 72 h: PC-9. Conditions: Homo sapiens; PC-9 cells, 72 h; read-out: GI50.
Description: as §1, §2

In the next test the test system is mouse pro-B cell BaF3. As to the kind of experiment: Cell growth, Cell Titer-Glo, 72 h: BaF3. Conditions: BaF3 cells, 72 h, read-out: GI50.
Description: as §1, §2

Test [4] has as its system NCI-H3255 (expressing EGFR L858R mutant gene). As to the kind of experiment: Cancer cell growth, Cell Titer-Glo, 72 h: NCI-H3255. Conditions: Homo sapiens; NCI-H3255 cells, 72 h; read-out: GI50.
Description: as §1, §2

Test [5] concerns BaF3-FL-EGFR-T790M-L858R (stably expressing EGFR T790M/L858R mutant kinase). As to the kind of experiment: Cell growth, Cell Titer-Glo, 72 h: BaF3-FL-EGFR-T790M-L858R. Conditions: Mus musculus, BaF3-FL-EGFR-T790M-L858R cells.
Description: as §3, §2

Test [6] concerns A549 (expressing wild-type EGFR gene). As to the kind of experiment: Cancer cell growth, Cell Titer-Glo, 72 h: A549. Conditions: Homo sapiens; A549 cells, 72 h; read-out: GI50.
Description: as §1, §2

Test [7] has as its system A431 (expressing wild-type EGFR gene). As to the kind of experiment: Cancer cell growth, Cell Titer-Glo, 72 h: A431. Conditions: Homo sapiens, A-431; A431 cells, 72 h; read-out: GI50.
Description: as §1, §2

Take `C=CC(=O)N1CCC[C@@H](n2nc(-c3ccc(OCc4cccc(F)c4)c(C)c3)c3c(N)ncnc32)C1` [Compound 14, (R)-1-(3-(4-amino-3-(3-methyl-4-((3-fluorobenzyl)oxy)phenyl)-1H-pyrazolo[3,4-d]pyrimidin-1-yl)piperidin-1-yl)prop-2-en-1-one]: the GI50 in test [1] is 0.038 µM; in test [2], 1.4 µM; in test [3] it was 0.016 µM; in the test with mouse pro-B cell BaF3 it was 2.5 µM; in test [4] it was 0.009 µM; in test [5], below 0.0003 µM.
On to `C=CC(=O)N1CCC[C@@H](n2nc(-c3ccc(OCc4cccc(F)c4)c(C#N)c3)c3c(N)ncnc32)C1` [Compound 16, (R)-1-(3-(4-amino-3-(3-cyano-4-((3-fluorobenzyl)oxy)phenyl)-1H-pyrazolo[3,4-d]pyrimidin-1-yl)piperidin-1-yl)prop-2-en-1-one], for which the GI50 in test [2] is above 10 µM; in test [3] it was 0.051 µM; in the test on mouse pro-B cell BaF3, above 10 µM; in test [4] it was 0.028 µM; in test [5], 0.052 µM.
As for `C=CC(=O)N1CCC[C@@H](n2nc(-c3ccc(OCc4ccccc4F)c(Cl)c3)c3c(N)ncnc32)C1` [Compound 18, (R)-1-(3-(4-amino-3-(3-chloro-4-((2-fluorobenzyl)oxy)phenyl)-1H-pyrazolo[3,4-d]pyrimidin-1-yl)piperidin-1-yl)prop-2-en-1-one], the GI50 in test [2] was 4.2 µM; in test [3], 0.014 µM; in the test with mouse pro-B cell BaF3 it was 8.5 µM; in test [4], 0.02 µM; in test [5], 0.001 µM.
For `C=CC(=O)N1CCC[C@@H](n2nc(-c3ccc(OCc4cccc(F)c4)nc3)c3c(N)ncnc32)C1` [Compound 19, (R)-1-(3-(4-amino-3-(6-((3-fluorobenzyl)oxy)pyridin-3-yl)-1H-pyrazolo[3,4-d]pyrimidin-1-yl)piperidin-1-yl)prop-2-en-1-one], the GI50 (in test [1]; in test [3]; in the test on mouse pro-B cell BaF3; in test [4]) was above 10 µM in each case.
Consider `C=CC(=O)N1CCC[C@@H](n2nc(-c3ccc(CN4CCN(C)CC4)cc3)c3c(N)ncnc32)C1` [Compound 20], for which the GI50 is above 10 µM in test [1]; above 10 µM in test [6]; 7 µM in test [3]; above 10 µM in the test with mouse pro-B cell BaF3; 4.9 µM in test [4]; above 10 µM in test [5].
As for `C=CC(=O)N1CCC[C@@H](n2nc(-c3ccc(OCc4cc(F)ccc4F)c(Cl)c3)c3c(N)ncnc32)C1` [Compound 23, (R)-1-(3-(4-amino-3-(3-chloro-4-((2,5-difluorobenzyl)oxy)phenyl)-1H-pyrazolo[3,4-d]pyrimidin-1-yl)piperidin-1-yl)prop-2-en-1-one], the GI50 in test [1] was 0.007 µM; in test [6], 3.8 µM; in test [3], 0.007 µM; in the test with mouse pro-B cell BaF3 it was 4.3 µM; in test [4], below 0.0003 µM; in test [5] it was below 0.0003 µM.
Turning to `C=CC(=O)N1CCC[C@@H](n2nc(-c3ccc(OCc4cccc(F)c4)cc3F)c3c(N)ncnc32)C1` [Compound 24, (R)-1-(3-(4-amino-3-(2-fluoro-4-((3-fluorobenzyl)oxy)phenyl)-1H-pyrazolo[3,4-d]pyrimidin-1-yl)piperidin-1-yl)prop-2-en-1-one], the 50% growth inhibitory concentration (GI50) in test [1] was 1.6 µM; in test [6] it was above 10 µM; in test [3] it was 0.006 µM; in the test on mouse pro-B cell BaF3, 1.9 µM; in test [4], below 0.0003 µM; in test [5], below 0.0003 µM.
With `C=CC(=O)Nc1cc(Cn2nc(-c3ccc(F)c(Cl)c3)c3c(N)ncnc32)ccc1F` [Compound 38], the GI50 in test [1] worked out at 5.1 µM; in test [2], 6.6 µM; in test [6] it was 2.8 µM; in test [3], 1.7 µM; with mouse pro-B cell BaF3, 4.6 µM; in test [4], 3.8 µM. The GI50 in test [7] amounted to 8.7 µM.

One may read the GI50 as the concentration at which growth is held to half of that of the control.

The values above are taken from US10781214B2, “Kinase inhibitor against wild-type and mutant EGFR” (PRECEDO PHARMACEUTICALS CO., LTD, priority 2015, dated 2020).
